We go through 13 compounds from US8119614B2, “Substitution derivatives of N6-benzyladenosine, methods of their preparation, their use for preparation of drugs, cosmetic preparations and growth regulators, pharmaceutical preparations, cosmetic preparations and growth regulators containing these compounds” (Ustav Experimentalni Botaniky Akademie Ved Ceske Republiky, priority 2002, dated 2012).

One assay deals with HOS. Description: In vitro cytotoxic activity, Calcein AM assay, HOS. In kind it is cell-based. Conditions: 72 hours.
The subject of another assay is promyelocytic HL-60. Description: In vitro cytotoxic activity, Calcein AM assay, HL60. The class given is cell-based, human. The conditions noted are these: 72 hours, read-out: IC 50 HL60. The gist of the method:
(§1)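 Cells seeded at 10^4 per well, pre-incubated 24 h, then exposed to six 4-fold dilutions (top well concentration usually 166.7 μM, duplicates) for 72 h at 37 °C. Viability read by Calcein AM fluorescence after 1 h; GI50 taken from dose-response curves relative to control wells.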

In assay [1] the test system is breast carcinoma cell lines MCF-7. Description: In vitro cytotoxic activity, Calcein AM assay, MCF7. The class given is cell-based, human. Conditions: 72 hours, read-out: IC 50 MCF7. The method in brief:
as §1

The next assay deals with mouse fibroblasts NIH3T3. Description: In vitro cytotoxic activity, Calcein AM assay, NIH-3T3. In kind it is cell-based. Conditions: 72 hours, read-out: IC 50 NIH-3T3. The gist of the method:
as §1

The subject of assay [2] is Human T-lymphoblastic leukemia cell line CEM. Description: In vitro cytotoxic activity, Calcein AM assay, CEM. In kind it is cell-based. The conditions noted are these: 72 hours. The method in brief: as §1
The subject of assay [3] is Triticum aestivum cv. Hereward. Description: Senescence inhibition on winter wheat leaf segments (chlorophyll retention). The class given is in vivo. Conditions: for Concentration with highest activity: chlorophyll retention in excised wheat leaf tips, 96 h dark; for Activity (%) [10^−4 mol · l^−1 BAP = 100%]: chlorophyll retention, at concentration with highest activity. The method in brief: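 Tip segments of the first leaf from 7-day wheat seedlings held, basal ends down, in cytokinin solutions (10^−8M to 10^−4M) for 96 h at 25° C in darkness. Chlorophyll extracted in 80% ethanol at 80° C, read at 665 nm; activity at best concentration given relative to 10^−4 M BAP (100%), means of five replicates.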

For assay [4], the system named is Amaranthus caudatus cotyledon/hypocotyl explants. Description: Amaranthus bioassay (betacyanin content). In kind it is in vivo. The conditions noted are these: for Concentration with highest activity: 48 h dark; for Activity (%) [10^−5 mol · l^−1 BAP = 100%]: at concentration with highest activity. The gist of the method: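 Surface-sterilised Amaranthus caudatus var. atropurpurea seeds were germinated 72 h at 25° C. in darkness, then de-rooted. Cotyledon/hypocotyl explants (20 per dish) were incubated under green safe light on filter paper with 1 ml medium of 10 μmol NA2HPO4-KH2PO4, pH 6.8, 5 μmol tyrosine and cytokinin (10^-8M to 10^-4M) for 48 h at 25° C. in darkness. Betacyanin was extracted in […] acetic acid and measured by absorbance at 537 nm and 620 nm.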

In assay [5] the test system is human erythroleukaemia K562. Description: In vitro cytotoxic activity, Calcein AM assay, K-562. Conditions: 72 hours, read-out: IC 50 K-562. In kind it is cell-based. The gist of the method:
as §1

Consider `Cc1cccc(CNc2ncnc3c2ncn3[C@@H]2O[C@H](CO)[C@@H](O)[C@H]2O)c1` [3-methylbenzylamino, 6-(3-methylbenzylamino)purine riboside], for which the IC50 in the assay with HOS is above 167 µM; in the assay on promyelocytic HL-60, 6.4 µM; in assay [1], above 167 µM; in the assay on mouse fibroblasts NIH3T3 it was above 167 µM; in assay [2] it was 19.1 µM; in assay [5], above 167 µM. Further, the “Concentration with highest activity” value in assay [3] is reported as 10^−4 mol · l^−1; in assay [4] it was 10^−5 mol · l^−1. Further, the “Activity (%) [10^−4 mol · l^−1 BAP = 100%]” value in assay [3] is recorded as 143 ± 9%. The “Activity (%) [10^−5 mol · l^−1 BAP = 100%]” value in assay [4] was 103 ± 16%.
Regarding `OC[C@H]1O[C@@H](n2cnc3c(NCc4cccc(F)c4)ncnc32)[C@H](O)[C@@H]1O` [3-fluorobenzylamino, 6-(3-fluorobenzylamino)purine riboside], the IC50 in the assay with HOS is above 167 µM; in the assay with promyelocytic HL-60, 0.92 µM; in assay [1] it was 16.6 µM; in the assay with mouse fibroblasts NIH3T3 it was above 167 µM; in assay [2], 4 µM; in assay [5], 7 µM. The “Concentration with highest activity” value in assay [3] and in assay [4] was 10^−4 mol · l^−1 throughout. Also, the “Activity (%) [10^−4 mol · l^−1 BAP = 100%]” value in assay [3] came to 220 ± 16%. Moreover, in assay [4], the “Activity (%) [10^−5 mol · l^−1 BAP = 100%]” value was found to be 92 ± 6%.
With `COc1cccc(CNc2ncnc3c2ncn3[C@@H]2O[C@H](CO)[C@@H](O)[C@H]2O)c1` [3-methoxybenzylamino, 6-(3-methoxybenzylamino)purine riboside], the IC50 in the assay on HOS is above 167 µM; in the assay with promyelocytic HL-60, 4.9 µM; in assay [1], above 167 µM; in the assay with mouse fibroblasts NIH3T3, above 167 µM; in assay [2] it was 7.6 µM; in assay [5], above 167 µM. The “Concentration with highest activity” value in assay [3] and in assay [4] was 10^−4 mol · l^−1 in each case. Also, the “Activity (%) [10^−4 mol · l^−1 BAP = 100%]” value in assay [3] was 209 ± 8%. Besides, in assay [4], the “Activity (%) [10^−5 mol · l^−1 BAP = 100%]” value worked out at 98 ± 10%.
On to `OC[C@H]1O[C@@H](n2cnc3c(NCc4ccccc4F)ncnc32)[C@H](O)[C@@H]1O` [2-fluorobenzylamino, 6-(2-fluorobenzylamino)purine riboside], for which the IC50 in the assay on HOS was above 167 µM; in the assay with promyelocytic HL-60, 3.2 µM; in assay [1] it was above 167 µM; in assay [2], 4.6 µM; in assay [5], 33.2 µM. The “Concentration with highest activity” value in assay [3] and in assay [4] was 10^−4 mol · l^−1 each time. Besides, in assay [3], the “Activity (%) [10^−4 mol · l^−1 BAP = 100%]” value was 118 ± 19%. The “Activity (%) [10^−5 mol · l^−1 BAP = 100%]” value in assay [4] turned out to be 96 ± 2%.
`OC[C@H]1O[C@@H](n2cnc3c(NCc4cccc(Br)c4)ncnc32)[C@H](O)[C@@H]1O` [3-bromobenzylamino, 6-(3-bromobenzylamino)purine riboside]: the IC50 was above 167 µM with HOS; 8 µM in the assay with promyelocytic HL-60; above 167 µM in assay [1]; above 167 µM with mouse fibroblasts NIH3T3; 5 µM in assay [2]; 19.7 µM in assay [5]. The “Concentration with highest activity” value in assay [3] and in assay [4] was 10^−4 mol · l^−1 in each case. The “Activity (%) [10^−4 mol · l^−1 BAP = 100%]” value in assay [3] worked out at 89 ± 10%. In addition, the “Activity (%) [10^−5 mol · l^−1 BAP = 100%]” value in assay [4] stood at 151 ± 16%.
As for `OC[C@H]1O[C@@H](n2cnc3c(NCc4ccc(Cl)cc4)ncnc32)[C@H](O)[C@@H]1O` [4-chlorobenzylamino, 6-(4-chlorobenzylamino)purine riboside], the IC50 in the assay with HOS was above 167 µM; in the assay on promyelocytic HL-60, 5.3 µM; in assay [1], above 167 µM; in the assay with mouse fibroblasts NIH3T3 it was above 167 µM; in assay [2], 6.5 µM; in assay [5] it was 16.1 µM. Moreover, the figures for the “Concentration with highest activity” value in assay [3] and in assay [4] were 10^−4 mol · l^−1 and 10^−5 mol · l^−1, respectively. Besides, in assay [3], the “Activity (%) [10^−4 mol · l^−1 BAP = 100%]” value stood at 104 ± 6%. Also, in assay [4], the “Activity (%) [10^−5 mol · l^−1 BAP = 100%]” value was found to be 35 ± 9%.
Consider `COc1cccc(CNc2ncnc3c2ncn3[C@@H]2O[C@H](CO)[C@@H](O)[C@H]2O)c1O` [2-hydroxy-3-methoxybenzylamino, 6-(2-hydroxy-3-methoxybenzylamino)purine riboside], for which the IC50 is above 167 µM in the assay on HOS; 0.15 µM in the assay with promyelocytic HL-60; 27 µM in assay [1]; above 167 µM with mouse fibroblasts NIH3T3; 0.3 µM in assay [2]; 19.2 µM in assay [5]. Besides, the “Concentration with highest activity” value in assay [3] and in assay [4] was 10^−4 mol · l^−1 throughout. The “Activity (%) [10^−4 mol · l^−1 BAP = 100%]” value in assay [3] amounted to 30 ± 8%. Besides, the “Activity (%) [10^−5 mol · l^−1 BAP = 100%]” value in assay [4] came out at 18 ± 5%.
As for `Cc1ccccc1CNc1ncnc2c1ncn2[C@@H]1O[C@H](CO)[C@@H](O)[C@H]1O` [2-methylbenzylamino, 6-(2-methylbenzylamino)purine riboside], the IC50 was above 167 µM in the assay with HOS; 3.3 µM in the assay on promyelocytic HL-60; above 167 µM in assay [1]; above 167 µM in the assay on mouse fibroblasts NIH3T3; 14 µM in assay [2]; above 167 µM in assay [5]. Moreover, the “Concentration with highest activity” value in assay [3] is recorded as 10^−4 mol · l^−1; in assay [4], 10^−5 mol · l^−1. For the same compound, the “Activity (%) [10^−4 mol · l^−1 BAP = 100%]” value in assay [3] is given as 142 ± 6%. Besides, the “Activity (%) [10^−5 mol · l^−1 BAP = 100%]” value in assay [4] is recorded as 105 ± 14%.
As to `COc1ccccc1CNc1ncnc2c1ncn2[C@@H]1O[C@H](CO)[C@@H](O)[C@H]1O` [2-methoxybenzylamino, 6-(2-methoxybenzylamino)purine riboside], the IC50 is 21.2 µM in the assay with HOS; 2.3 µM in the assay on promyelocytic HL-60; above 167 µM in assay [1]; above 167 µM in the assay on mouse fibroblasts NIH3T3; 3.2 µM in assay [2]; 11.2 µM in assay [5]. For the same compound, the “Concentration with highest activity” value in assay [3] is on record as 10^−4 mol · l^−1; in assay [4] it was 10^−5 mol · l^−1. In addition, the “Activity (%) [10^−4 mol · l^−1 BAP = 100%]” value in assay [3] stood at 198 ± 12%. In assay [4], the “Activity (%) [10^−5 mol · l^−1 BAP = 100%]” value is 86 ± 4%.
Consider `OC[C@H]1O[C@@H](n2cnc3c(NCc4cccc(Cl)c4)ncnc32)[C@H](O)[C@@H]1O` [3-chlorobenzylamino, 6-(3-chlorobenzylamino)purine riboside], for which the IC50 was above 167 µM in the assay with HOS; 0.75 µM with promyelocytic HL-60; above 167 µM in assay [1]; above 167 µM in the assay with mouse fibroblasts NIH3T3; 1.6 µM in assay [2]; 30.4 µM in assay [5]. Moreover, the “Concentration with highest activity” value was 10^−4 mol · l^−1 in assay [3] and 10^−5 mol · l^−1 in assay [4]. For the same compound, the “Activity (%) [10^−4 mol · l^−1 BAP = 100%]” value in assay [3] came to 72 ± 8%. The “Activity (%) [10^−5 mol · l^−1 BAP = 100%]” value in assay [4] is 139 ± 12%.
In the case of `OC[C@H]1O[C@@H](n2cnc3c(NCc4ccccc4Cl)ncnc32)[C@H](O)[C@@H]1O` [2-chlorobenzylamino, 6-(2-chlorobenzylamino)purine riboside], the IC50 in the assay with HOS was above 167 µM; with promyelocytic HL-60, 1.6 µM; in assay [1], above 167 µM; in the assay with mouse fibroblasts NIH3T3 it was above 167 µM; in assay [2], 14.5 µM; in assay [5] it was 64 µM. The “Concentration with highest activity” value in assay [3] is 10^−4 mol · l^−1; in assay [4] it was 10^−5 mol · l^−1. Also, the “Activity (%) [10^−4 mol · l^−1 BAP = 100%]” value in assay [3] is on record as 119 ± 9%. The “Activity (%) [10^−5 mol · l^−1 BAP = 100%]” value in assay [4] worked out at 113 ± 7%.
Regarding `OC[C@H]1O[C@@H](n2cnc3c(NCc4ccc(Cl)c(Cl)c4)ncnc32)[C@H](O)[C@@H]1O` [3,4-dichlorobenzylamino, 6-(3,4-dichlorobenzylamino)purine riboside], the IC50 in the assay on HOS was above 167 µM; with promyelocytic HL-60, 1.1 µM; in assay [1], 88.8 µM; with mouse fibroblasts NIH3T3 it was above 167 µM; in assay [2], 3 µM; in assay [5] it was 6.5 µM. The “Concentration with highest activity” value in assay [3] and in assay [4] was 10^−4 mol · l^−1 throughout. Besides, the “Activity (%) [10^−4 mol · l^−1 BAP = 100%]” value in assay [3] worked out at 151 ± 29%. In assay [4], the “Activity (%) [10^−5 mol · l^−1 BAP = 100%]” value is recorded as 68 ± 10%.
For `OC[C@H]1O[C@@H](n2cnc3c(NCc4ccc(F)cc4)ncnc32)[C@H](O)[C@@H]1O` [4-fluorobenzylamino, 6-(4-fluorobenzylamino)purine riboside], the IC50 in the assay on HOS is 20 µM; in the assay with promyelocytic HL-60, 0.86 µM; in assay [1], 14 µM; in the assay with mouse fibroblasts NIH3T3, above 167 µM; in assay [2] it was 1.5 µM; in assay [5], 6.4 µM. Also, the entries for the “Concentration with highest activity” value in assay [3] and in assay [4] were 10^−4 mol · l^−1 and 10^−5 mol · l^−1, respectively. For the same compound, the “Activity (%) [10^−4 mol · l^−1 BAP = 100%]” value in assay [3] is on record as 148 ± 2%. In assay [4], the “Activity (%) [10^−5 mol · l^−1 BAP = 100%]” value stood at 71 ± 4%.
